Results as given in US5656422A, “Compositions and methods for detection of 2,4-dichlorophenoxyacetic acid and related compounds” (Idaho Research Foundation, Inc., priority 1994, dated 1997).

Legend:
[1] = tested on: O=C(O)COc1ccc(Cl)cc1Cl; experiment: cells, lysate or membranes named; conditions: other: 20° C., pH 8.0, 50 μM Fe^2, cell-free extract
Description: (§1) Effect of pH on enzyme activity. Since the color reaction by the 4-aminoantipyrine method is almost instantaneous, the conversion rate of 2,4-D into DCP determines the response time for 2,4-D detection. Higher reaction rates result in smaller response times or less enzyme needed for 2,4-D detection. […] However, the preferred pH for the color reaction is in the range of pH 8.0 to 12.0. […] More importantly, 4-aminoantipyrine reacts with potassium ferricyanide at pH 6.5, producing a slight color change that is similar to having 2 mg/l DCP in solutions. Although pH 6.5 can be used for the enzymatic reaction if the pH of the solution is subsequently adjusted for the color reaction, this is less convenient.
(§2) Effect of Fe^2+ on enzyme activity. […] This saturation concentration should be a function of enzyme concentration used. In order to maximize enzyme activity, a higher ferrous ion concentration, such as 100 μM, should be used for 2,4-D detection.
(§3) Kinetics of enzymatic reaction. […] Since oxygen cannot be controlled in the process of 2,4-D detection, oxygen was not considered in the model. Kinetic data were measured at pH 8.0, 100 mM Fe^2+ and room temperature (20° C.), as shown in the Lineweaver-Burk plots in FIGS. 18A and 18B.
(§4) The values of model parameters were determined from double reciprocal plots.

[2] = tested on: O=C(O)CCC(=O)C(=O)O; experiment: cells, lysate or membranes named; conditions: other: 20° C., pH 8.0, 50 μM Fe^2, cell-free extract
[3] = biological target: T1, 2,4-D α-ketoglutarate dioxygenase (Cupriavidus pinatubonensis, UniProt P10088); experiment: Enzyme activity and kinetics of recombinant DDO in cell-free extract (DCP production, 4-aminoantipyrine method)
T1 sequence (P10088 whole entry): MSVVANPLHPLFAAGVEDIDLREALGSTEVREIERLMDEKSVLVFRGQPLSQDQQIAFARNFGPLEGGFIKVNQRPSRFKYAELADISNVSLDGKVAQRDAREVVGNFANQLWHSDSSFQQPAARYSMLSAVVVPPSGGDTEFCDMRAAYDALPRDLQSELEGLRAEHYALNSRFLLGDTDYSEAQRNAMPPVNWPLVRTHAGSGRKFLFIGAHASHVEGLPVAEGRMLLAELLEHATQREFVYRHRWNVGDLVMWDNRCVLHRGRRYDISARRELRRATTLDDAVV
Description: as §1, §2, §3, §4

[4] = biological target: T1, 2,4-D α-ketoglutarate dioxygenase; parameters: made in house; host or cells: E. coli DH5α (pYG3), cell-free extract; conditions: cited from earlier work
[5] = tested on: E. coli DH5α (pYG3); experiment: Induction of enzyme production by IPTG in E. coli DH5α (pYG3); type: cell-based
Procedure: Growth and maintenance of E. coli DH5α (pYG3). E. coli DH5α (pYG3), a strain specifically constructed for 2,4-D detection (Example 1), was routinely maintained on LB plates with 75 mg/l of ampicillin and stored at 4° C. Yeast extract was used as a carbon and energy source for E. coli DH5α (pYG3) with 50 mg/l of ampicillin for selective pressure. Batch cultures of E. coli DH5α (pYG3) were carried out in 1000 ml flasks with 400 ml media for the optimization of media and operating condition. The media were directly inoculated by a single colony on a LB plate. The flasks were shaken on a rotary shaker at 200 rpm and incubated at 30° C. or 37° C.
DCP concentration was measured by the 4-aminoantipyrine method (E. Emerson, J. Org. Chem. 1943, 8, 417-419). In place of 2,4-D, phenoxyacetic acid was used for P. aeruginosa PAO1 (pRO103).
Preparation of cell-free extracts. E. coli cultures (10 or 15 ml) were harvested by centrifugation (8,000×g) for 10 minutes, washed using 5 ml of 100 mM sodium phosphate buffer (pH 8.0), then resuspended in 3 ml of phosphate buffer. Cell-free extracts were obtained by passing the cells once through a pre-chilled French press at 1500 psi and clarifying the debris by centrifugation (16,000×g) for 20 minutes at 4° C.
IPTG concentration. IPTG was used as the inducer of the lacZ promoter which regulated the expression of tfdA in pYG3 (Example 1). […]

Compound: 2,4-D α-ketoglutarate dioxygenase (Cupriavidus pinatubonensis JMP134)
- Km [1]: 107 µM
- Km [2]: 55 µM

Compound: 2,4-D α-ketoglutarate dioxygenase [DDO]
- Vmax ([3]; 20° C., pH 8.0, 50 μM Fe^2, cell-free extract of E. coli DH5α (pYG3)): 2.0 µmol/min/mg
- optimum pH for the enzymatic reaction ([3]; conversion of 2,4-D into DCP): 6.5

Compound: O=C(O)COc1cc(Cl)c(Cl)cc1Cl [2,4,5-T, (2,4,5,-trichlorophenoxy)acetic acid]
- cleavage by DDO [4]: does not cleave

Compound: Cc1ccccc1OCC(=O)O [2-methylphenoxyacetic acid]
- cleavage by DDO [4]: cleaves

Compound: CC(C)S[C@@H]1O[C@H](CO)[C@H](O)[C@H](O)[C@H]1O [IPTG, isopropyl β-D-thiogalactopyranoside]
- saturation IPTG concentration for enzyme production ([5]; E. coli DH5α (pYG3)): approximately 150 mg/l
- activation at 150 µg/mL ([5]; Escherichia coli, at saturation IPTG concentration, approximately 150 mg/l, read-out: enzyme productivity higher than without IPTG): ~40%

Compound: Cc1cc(Cl)ccc1OCC(=O)O [MCPA, 4-chloro-2-methyl-phenoxyacetic acid]
- cleavage by DDO [4]: cleaves the side chain

Compound: [Fe+2] [ferrous ions]
- saturation concentration of ferrous ion for enzyme activity ([3]; cell-free extract): 50 µM

Compound: O=C(O)COc1ccccc1 [phenoxyacetic acid]
- cleavage by DDO [4]: cleaves the side chain
